These results are taken from PubChem BioAssay AID256 (DTP/NCI, 2004).

“And” between values parts separate entries of the source, which are not always exact repeats. Identical values can stand only once. Inconclusive results and toxic doses are left out.

This experiment has as its system CD2F1 mice, L1210 leukemia ip, survival T/C. Briefly: NCI In Vivo Anticancer Drug Screen. Data for tumor model L1210 Leukemia (intraperitoneal) in CD2F1 (CDF1) mice. Particulars: higher = longer survival. The procedure, abridged:
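Transplantable tumor in mice; compound-treated vs vehicle-treated groups. Read-out = treated/control ratio of the measured endpoint.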

Where [1] appears, read: endpoint: mean survival time, dose: 10.0 mg/kg/injection, schedule: Q04DX003 (ip), vehicle: saline.
The mark [2] stands for this setting: endpoint: mean survival time, dose: 20.0 mg/kg/injection, schedule: Q04DX003 (ip), vehicle: saline.
[3] abbreviates: endpoint: mean survival time, dose: 100.0 mg/kg/injection, schedule: Q01DX001 (ip), vehicle: saline with Tween-80.
Setting [4] is: endpoint: mean survival time, dose: 200.0 mg/kg/injection, schedule: Q01DX001 (ip), vehicle: saline with Tween-80.
Where [5] appears, read: endpoint: mean survival time, dose: 400.0 mg/kg/injection, schedule: Q01DX001 (ip), vehicle: saline with Tween-80.
The mark [6] stands for this setting: endpoint: mean survival time, dose: 100.0 mg/kg/injection, schedule: Q01DX009 (ip), vehicle: saline with Tween-80.
Setting [7] is: endpoint: mean survival time, dose: 200.0 mg/kg/injection, schedule: Q01DX009 (ip), vehicle: saline with Tween-80.
[8] abbreviates: endpoint: mean survival time, dose: 400.0 mg/kg/injection, schedule: Q01DX009 (ip), vehicle: saline with Tween-80.

Regarding `CCC[CH2][Sn]1([CH2]CCC)[O]CC2OC(n3cc(C)c(=O)[nH]c3=O)CC2[O]1` (stereo not given), the T/C is 97 % of control (endpoint: mean survival time, dose: 0.78 mg/kg/injection, schedule: Q01DX005 (ip), vehicle: other); 101 % of control (endpoint: mean survival time, dose: 1.56 mg/kg/injection, schedule: Q01DX005 (ip), vehicle: other); 106 % of control (endpoint: mean survival time, dose: 3.13 mg/kg/injection, schedule: Q01DX005 (ip), vehicle: other).

With `CC1COS(=O)O1` (stereo not given), the T/C is 96 % of control (endpoint: mean survival time, dose: 10.0 mg/kg/injection, schedule: Q01DX009 (ip), vehicle: saline with Tween-80); 103 % of control under setting [1]; 101 % of control (endpoint: mean survival time, dose: 20.0 mg/kg/injection, schedule: Q01DX009 (ip), vehicle: saline with Tween-80); 97 % of control under setting [2]; 109 % of control (endpoint: mean survival time, dose: 40.0 mg/kg/injection, schedule: Q01DX009 (ip), vehicle: saline with Tween-80); 101 % of control (endpoint: mean survival time, dose: 40.0 mg/kg/injection, schedule: Q04DX003 (ip), vehicle: saline).

`Cc1ccc(NC(=O)Nc2cccc(NC(=O)COc3ccc(Cl)cc3C(=O)O)c2)cc1S(=O)(=O)F`: the T/C by setting is: under setting [3], 88 % of control; under setting [4], 86 % of control; under setting [5], 89 % of control.

Turning to `O=c1n(-c2ccccc2)c(=O)n2n1C1C=CC2C2CC2/C=C\1` (stereo not given), the T/C was 112 % of control (endpoint: median survival time, dose: 50.0 mg/kg/injection, schedule: Q04DX002 (ip), vehicle: saline with Tween-80); 112 % of control (endpoint: median survival time, dose: 100.0 mg/kg/injection, schedule: Q04DX002 (ip), vehicle: saline with Tween-80); 87 % of control (endpoint: median survival time, dose: 200.0 mg/kg/injection, schedule: Q04DX002 (ip), vehicle: saline with Tween-80).

As for `Cc1ccc(S(N)(=O)=O)cc1`, the T/C under setting [6] is 94 % of control, the T/C under setting [7] is 97 % of control and the T/C under setting [8] was 102 % of control.

On to `BrC1=C(Br)C(Br)(Br)C(Br)=C1Br`, for which the T/C (endpoint: mean survival time, dose: 1.25 mg/kg/injection, schedule: Q01DX009 (ip), vehicle: saline with Tween-80) was 106 % of control; the T/C (endpoint: mean survival time, dose: 2.5 mg/kg/injection, schedule: Q01DX009 (ip), vehicle: saline with Tween-80) was 101 % of control; the T/C (endpoint: mean survival time, dose: 5.0 mg/kg/injection, schedule: Q01DX009 (ip), vehicle: saline with Tween-80) was 101 % of control.

On to `c1ccc(C2CC([P+](c3ccccc3)(c3ccccc3)c3ccccc3)=NN2)cc1` (stereo not given), for which the T/C was 110 % of control (endpoint: mean survival time, dose: 2.7 mg/kg/injection, schedule: Q01DX009 (ip), vehicle: Klucel (hydroxypropylcellulose) (HPC)); 112 % of control (endpoint: mean survival time, dose: 4.1 mg/kg/injection, schedule: Q01DX009 (ip), vehicle: Klucel (hydroxypropylcellulose) (HPC)); 106 % of control (endpoint: mean survival time, dose: 5.5 mg/kg/injection, schedule: Q04DX003 (ip), vehicle: Klucel (hydroxypropylcellulose) (HPC)); 108 % of control (endpoint: mean survival time, dose: 6.25 mg/kg/injection, schedule: Q01DX009 (ip), vehicle: Klucel (hydroxypropylcellulose) (HPC)); 106 % of control (endpoint: mean survival time, dose: 8.2 mg/kg/injection, schedule: Q04DX003 (ip), vehicle: Klucel (hydroxypropylcellulose) (HPC)); 110 % of control (endpoint: mean survival time, dose: 9.3 mg/kg/injection, schedule: Q01DX009 (ip), vehicle: Klucel (hydroxypropylcellulose) (HPC)). Moreover, the T/C was 102 % of control (endpoint: mean survival time, dose: 11.0 mg/kg/injection, schedule: Q04DX002 (ip), vehicle: Klucel (hydroxypropylcellulose) (HPC)); 104 % of control (endpoint: mean survival time, dose: 12.5 mg/kg/injection, schedule: Q04DX003 (ip), vehicle: Klucel (hydroxypropylcellulose) (HPC)); 102 % of control (endpoint: mean survival time, dose: 14.0 mg/kg/injection, schedule: Q01DX009 (ip), vehicle: Klucel (hydroxypropylcellulose) (HPC)); 95 % of control (endpoint: mean survival time, dose: 16.0 mg/kg/injection, schedule: Q04DX002 (ip), vehicle: Klucel (hydroxypropylcellulose) (HPC)); 108 % of control (endpoint: mean survival time, dose: 18.0 mg/kg/injection, schedule: Q04DX003 (ip), vehicle: Klucel (hydroxypropylcellulose) (HPC)); 104 % of control (endpoint: mean survival time, dose: 22.0 mg/kg/injection, schedule: Q01DX001 (ip), vehicle: Klucel (hydroxypropylcellulose) (HPC)). Further, the T/C is, setting by setting: (endpoint: mean survival time, dose: 25.0 mg/kg/injection, schedule: Q04DX002 (ip), vehicle: Klucel (hydroxypropylcellulose) (HPC)) 102 % of control; (endpoint: mean survival time, dose: 28.0 mg/kg/injection, schedule: Q04DX003 (ip), vehicle: Klucel (hydroxypropylcellulose) (HPC)) 108 % of control; (endpoint: mean survival time, dose: 35.0 mg/kg/injection, schedule: Q01DX001 (ip), vehicle: Klucel (hydroxypropylcellulose) (HPC)) 110 % of control; (endpoint: mean survival time, dose: 35.0 mg/kg/injection, schedule: Q04DX002 (ip), vehicle: Klucel (hydroxypropylcellulose) (HPC)) 96 % of control; (endpoint: mean survival time, dose: 55.0 mg/kg/injection, schedule: Q04DX002 (ip), vehicle: Klucel (hydroxypropylcellulose) (HPC)) 104 % of control.

Consider `CC1(C)N=C(N)N=C(N)N1c1cccc(Cl)c1Cl`, for which the T/C reads like this: (endpoint: mean survival time, dose: 5.0 mg/kg/injection, schedule: Q04DX003 (ip), vehicle: saline) 105 % of control; under setting [1], 112 % of control; under setting [2], 115 % of control.

`O=C(O)CO.[NH2-].[NH2-].[Pt+2]`: the T/C (endpoint: median survival time, dose: 20.0 mg/kg/injection, schedule: Q04DX003 (ip), vehicle: saline) was 192 % of control and 238 % of control; the T/C (endpoint: median survival time, dose: 40.0 mg/kg/injection, schedule: Q04DX003 (ip), vehicle: saline) was 182 % of control and 340 % of control; the T/C (endpoint: median survival time, dose: 80.0 mg/kg/injection, schedule: Q04DX003 (ip), vehicle: saline) is 98 % of control and 102 % of control.

Consider `CC(=O)Nc1nc(C)c(S(=O)(=O)O)s1`, for which the T/C reads like this: (endpoint: mean survival time, dose: 75.0 mg/kg/injection, schedule: Q01DX001 (ip), vehicle: saline) 101 % of control; (endpoint: mean survival time, dose: 150.0 mg/kg/injection, schedule: Q01DX001 (ip), vehicle: saline) 93 % of control; (endpoint: mean survival time, dose: 300.0 mg/kg/injection, schedule: Q01DX001 (ip), vehicle: saline) 90 % of control.

In the case of `O=C1NC(=O)C(=O)N1`, the T/C is 94 % of control (endpoint: mean survival time, dose: 100.0 mg/kg/injection, schedule: Q01DX009 (ip), vehicle: saline); 105 % of control (endpoint: mean survival time, dose: 200.0 mg/kg/injection, schedule: Q01DX009 (ip), vehicle: saline); 108 % of control (endpoint: mean survival time, dose: 400.0 mg/kg/injection, schedule: Q01DX009 (ip), vehicle: saline).

Take `N#Cc1ccc2cn[nH]c2c1`: the T/C reads like this: under setting [6], 98 % of control; under setting [7], 96 % of control; under setting [8], 92 % of control.

`NS(=O)(=O)c1ccc(NC(=O)Nc2cccc(F)c2)cc1`: the T/C runs as follows: under setting [6], 98 % of control; under setting [7], 106 % of control; under setting [8], 97 % of control.

In the case of `CCSC(SCC)C(O)C(O)C1COC(C)(C)O1` (stereo not given), the T/C was 93 % of control under setting [3], 93 % of control under setting [4] and 101 % of control under setting [5].

On to `O=C(CBr)c1cc(-c2ccccc2)nc2c(Cl)cc(Cl)cc12`, for which the T/C (endpoint: mean survival time, dose: 100.0 mg/kg/injection, schedule: Q01DX001 (ip), vehicle: saline) is 100 % of control; the T/C (endpoint: mean survival time, dose: 200.0 mg/kg/injection, schedule: Q01DX001 (ip), vehicle: saline) was 103 % of control; the T/C (endpoint: mean survival time, dose: 400.0 mg/kg/injection, schedule: Q01DX001 (ip), vehicle: saline) is 97 % of control.

In the case of `O=C1OC2CCC13CCCCC3C2` (stereo not given), the T/C was 96 % of control (endpoint: mean survival time, dose: 100.0 mg/kg/injection, schedule: Q04DX003 (ip), vehicle: saline with Tween-80); 88 % of control (endpoint: mean survival time, dose: 200.0 mg/kg/injection, schedule: Q04DX003 (ip), vehicle: saline with Tween-80); 86 % of control (endpoint: mean survival time, dose: 400.0 mg/kg/injection, schedule: Q04DX003 (ip), vehicle: saline with Tween-80).

With `CCCCS(=O)(=O)CC(O)c1ccccc1` (stereo not given), the T/C is 115 % of control (endpoint: mean survival time, dose: 100.0 mg/kg/injection, schedule: Q04DX002 (ip), vehicle: saline with Tween-80); 101 % of control (endpoint: mean survival time, dose: 200.0 mg/kg/injection, schedule: Q04DX002 (ip), vehicle: saline with Tween-80); 104 % of control (endpoint: mean survival time, dose: 400.0 mg/kg/injection, schedule: Q04DX002 (ip), vehicle: saline with Tween-80).

In the case of `O=C(Nc1cccc2ccccc12)[C@H]1C[C@H]2C=C[C@@H]1C2`, the T/C is 101 % of control (endpoint: mean survival time, dose: 37.5 mg/kg/injection, schedule: Q01DX009 (ip), vehicle: saline with Tween-80); 95 % of control (endpoint: mean survival time, dose: 75.0 mg/kg/injection, schedule: Q01DX009 (ip), vehicle: saline with Tween-80); 95 % of control (endpoint: mean survival time, dose: 150.0 mg/kg/injection, schedule: Q01DX009 (ip), vehicle: saline with Tween-80); 97 % of control (endpoint: mean survival time, dose: 300.0 mg/kg/injection, schedule: Q01DX009 (ip), vehicle: saline with Tween-80).

For the compound `O=C1C=C(Nc2ccccc2)CCC1`, the T/C is 94 % of control under setting [6], 100 % of control under setting [7] and 97 % of control under setting [8].
